Source: patent publication US7598245B2 (Vertex Pharmaceuticals Incorporated, priority 2003, dated 2009)

What was measured:
Assay type in all cases: biochemical
GSK-3β (AA 1-420) = GSK-3β (AA 1-420) (Homo sapiens, UniProt P49841); experiment: Inhibition of GSK-3, coupled enzyme system; conditions: 20 μM ATP, 30° C.
Description: Compounds are screened for their ability to inhibit GSK-3β (AA 1-420) activity using a standard coupled enzyme system [Fox et al. Protein Sci. 1998, 7, 2249]. Reactions are carried out in a solution containing 100 mM HEPES (pH 7.5), 10 mM MgCl2, 25 mM NaCl, 300 μM NADH, 1 mM DTT and 1.5% DMSO. Final substrate concentrations in the assay are 20 μM ATP (Sigma Chemicals, St Louis, Mo.) and 300 μM peptide (American Peptide, Sunnyvale, Calif.). Reactions are carried out at 30° C. and 20 nM GSK-3β. Final concentrations of the components of the coupled enzyme system are 2.5 mM phosphoenolpyruvate, 300 μM NADH, 30 μg/ml pyruvate kinase and 10 μg/ml lactate dehydrogenase.
An assay stock buffer solution is prepared containing all of the reagents listed above with the exception of ATP and the test compound of interest. The assay stock buffer solution (175 μl) is incubated in a 96 well plate with 5 μl of the test compound of interest at final concentrations spanning 0.002 μM to 30 μM at 30° C. for 10 min. Typically, a 12 point titration is conducted by preparing serial dilutions (from 10 mM compound stocks) with DMSO of the test compounds in daughter plates. The reaction is initiated by the addition of 20 μl of ATP (final concentration 20 μM). Rates of reaction are obtained using a Molecular Devices Spectramax plate reader (Sunnyvale, Calif.) over 10 min at 30° C. The Ki values are determined from the rate data as a function of inhibitor concentration.

CDK-2/Cyclin A = biological target: T1, CDK-2/Cyclin A (Homo sapiens, UniProt P24941); experiment: Inhibition of CDK-2, coupled enzyme assay; conditions: 100 μM ATP, 30° C.
T1 construct: 25 nM CDK-2/Cyclin A
Description: Compounds are screened for their ability to inhibit CDK-2/Cyclin A using a standard coupled enzyme assay [Fox et al. Protein Sci. 1998, 7, 2249]. Reactions were carried out in 100 mM HEPES (pH 7.5), 10 mM MgCl2, 25 mM NaCl, 1 mM DTT and 1.5% DMSO. Final substrate concentrations in the assay are 100 μM ATP (Sigma chemicals) and 100 μM peptide (American Peptide, Sunnyvale, Calif.). Assays are carried out at 30° C. and 25 nM CDK-2/Cyclin A. Final concentrations of the components of the coupled enzyme system are 2.5 mM phosphoenolpyruvate, 350 μM NADH, 30 μg/ml pyruvate kinase and 10 μg/ml lactate dehydrogenase.
An assay stock buffer solution is prepared containing all of the reagents listed above, with the exception of CDK-2/Cyclin A, DTT and the test compound of interest. 56 μl of the test reaction is placed in a 384 well plate followed by addition of 1 μl of 2 mM DMSO stock containing the test compound (final compound concentration 30 μM). The plate is preincubated for ˜10 minutes at 30° C. and the reaction initiated by addition of 10 μl of enzyme (final concentration 25 nM). Rates of reaction are obtained using a BioRad Ultramark plate reader (Hercules, Calif.) over a 5 minute read time at 30° C. Ki values are determined according to standard methods.

JAK-3 = biological target: T2, JAK-3 (Homo sapiens, UniProt P52333); experiment: JAK3 inhibition assay (ELISA, Poly (Glu, Ala, Tyr) coated plates); conditions: 2 μM ATP
T2 sequence (P52333 1-1124): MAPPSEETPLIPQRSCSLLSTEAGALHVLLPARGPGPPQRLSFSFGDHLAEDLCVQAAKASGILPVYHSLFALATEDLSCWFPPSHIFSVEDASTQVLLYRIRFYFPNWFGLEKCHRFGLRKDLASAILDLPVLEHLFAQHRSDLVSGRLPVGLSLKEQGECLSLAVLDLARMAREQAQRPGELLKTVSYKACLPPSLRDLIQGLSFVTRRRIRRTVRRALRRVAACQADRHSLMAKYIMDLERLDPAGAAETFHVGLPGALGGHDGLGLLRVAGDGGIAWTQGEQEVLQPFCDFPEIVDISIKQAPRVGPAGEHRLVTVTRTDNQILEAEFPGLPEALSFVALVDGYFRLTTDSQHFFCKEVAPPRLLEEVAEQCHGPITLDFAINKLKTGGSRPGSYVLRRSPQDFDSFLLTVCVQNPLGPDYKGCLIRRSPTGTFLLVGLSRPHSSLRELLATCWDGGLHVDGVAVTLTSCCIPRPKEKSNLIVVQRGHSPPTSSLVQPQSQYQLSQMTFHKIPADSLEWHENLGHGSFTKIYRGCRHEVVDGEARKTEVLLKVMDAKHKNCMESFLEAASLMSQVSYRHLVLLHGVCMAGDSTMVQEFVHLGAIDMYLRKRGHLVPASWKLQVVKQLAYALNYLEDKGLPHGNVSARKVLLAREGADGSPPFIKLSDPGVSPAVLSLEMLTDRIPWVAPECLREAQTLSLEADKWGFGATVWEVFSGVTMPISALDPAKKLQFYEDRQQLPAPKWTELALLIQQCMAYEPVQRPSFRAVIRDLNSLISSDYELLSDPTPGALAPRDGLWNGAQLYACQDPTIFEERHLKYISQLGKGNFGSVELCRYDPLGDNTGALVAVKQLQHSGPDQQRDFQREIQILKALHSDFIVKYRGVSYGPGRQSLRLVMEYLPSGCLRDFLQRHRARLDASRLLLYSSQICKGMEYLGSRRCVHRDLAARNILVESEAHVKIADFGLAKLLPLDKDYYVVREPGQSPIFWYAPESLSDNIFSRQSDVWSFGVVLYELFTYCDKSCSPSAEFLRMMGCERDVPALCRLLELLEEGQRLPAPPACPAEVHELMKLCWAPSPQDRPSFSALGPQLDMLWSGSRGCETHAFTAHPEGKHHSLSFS
Description: Compound inhibition of JAK was assayed by the method described by G. R. Brown, et al, Bioorg. Med. Chem. Lett. 2000, vol. 10, pp 575-579 in the following manner. Into Maxisorb plates, previously coated at 4° C. with Poly (Glu, Ala, Tyr) 6:3:1 then washed with phosphate buffered saline 0.05% and Tween-(PBST), was added 2 μM ATP, 5 mM MgCl2, and a solution of compound in DMSO. The reaction was started with JAK enzyme and the plates incubated for 60 minutes at 30° C. The plates were then washed with PBST, 100 μL HRP-Conjugated 4G10 antibody was added, and the plate incubated for 90 minutes at 30° C. The plate was again washed with PBST, 100 μL TMB solution is added, and the plates were incubated for another 30 minutes at 30° C. Sulfuric acid (100 μL of 1M) was added to stop the reaction and the plate is read at 450 nm to obtain the optical densities for analysis to determine Ki values.

Chain of GSK-3β (AA 1-420) (P49841 whole entry, the tested form may be a part): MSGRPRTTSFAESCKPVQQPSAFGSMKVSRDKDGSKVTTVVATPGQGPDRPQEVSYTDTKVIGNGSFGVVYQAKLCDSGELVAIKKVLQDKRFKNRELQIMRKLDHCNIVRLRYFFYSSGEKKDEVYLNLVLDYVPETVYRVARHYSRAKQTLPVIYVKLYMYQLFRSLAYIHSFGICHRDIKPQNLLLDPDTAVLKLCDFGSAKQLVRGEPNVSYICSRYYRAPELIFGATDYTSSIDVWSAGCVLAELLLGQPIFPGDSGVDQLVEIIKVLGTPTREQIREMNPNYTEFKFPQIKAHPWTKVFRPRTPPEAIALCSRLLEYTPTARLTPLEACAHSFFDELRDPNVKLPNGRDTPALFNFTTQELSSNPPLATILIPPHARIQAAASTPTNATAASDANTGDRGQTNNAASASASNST

| Compound | Ki (GSK-3β (AA 1-420)) | Ki (CDK-2/Cyclin A) | Ki (JAK-3) |
| --- | --- | --- | --- |
| COc1cc(Nc2ncn(-c3ccccc3)n2)cc(OC)c1OC [Compound I-42] | > 1000 nM | > 1000 nM | 10 to 1000 nM |
| COc1cc(Nc2ncn(-c3ccc(C#N)cc3)n2)cc(OC)c1OC [Compound I-43] | 500 to 1000 nM | 500 to 1000 nM | 10 to 1000 nM |
| c1ccc(-n2cnc(Nc3ccc4c(c3)OCCO4)n2)cc1 [Compound I-44] | > 1000 nM | > 1000 nM | > 1000 nM |
| CCOc1cccc(Nc2ncn(-c3ccccc3)n2)c1 [Compound I-45] | > 1000 nM | > 1000 nM | > 1000 nM |
| CC(C)Oc1cccc(Nc2ncn(-c3ccccc3)n2)c1 [Compound I-46] | > 1000 nM | > 1000 nM | > 1000 nM |
| CCOc1ccc(Nc2ncn(-c3ccccc3)n2)cc1 [Compound I-47] | > 1000 nM | > 1000 nM | > 1000 nM |
| c1ccc(Nc2ncn(-c3ccnc(N4CCCCC4)c3)n2)cc1 [Compound I-49, phenyl-[1-(3,4,5,6-tetrahydro-2H-[1,2′]bipyridinyl-4′-yl)-1H-[1,2,4]triazol-3-yl]-amine] | 500 to 1000 nM | < 500 nM | 10 to 1000 nM |
| c1ccc(Nc2ncn(-c3ccnc(NC4CCCCC4)c3)n2)cc1 [Compound I-50] | 500 to 1000 nM | < 500 nM | 10 to 1000 nM |
| CN(CCO)c1cc(-n2cnc(Nc3ccccc3)n2)ccn1 [Compound I-51] | < 500 nM | < 500 nM | 10 to 1000 nM |
| c1ccc(Nc2ncn(-c3ccnc(N4CCCCCCC4)c3)n2)cc1 [Compound I-52] | 500 to 1000 nM | < 500 nM | 10 to 1000 nM |
| CN(C)CCCN(C)c1cc(-n2cnc(Nc3ccccc3)n2)ccn1 [Compound I-53] | > 1000 nM | > 1000 nM | > 1000 nM |
| CCN(CCO)c1cc(-n2cnc(Nc3ccccc3)n2)ccn1 [Compound I-54] | < 500 nM | < 500 nM | 10 to 1000 nM |
| CN(Cc1ccccc1)c1cc(-n2cnc(Nc3ccccc3)n2)ccn1 [Compound I-55] | > 1000 nM | < 500 nM | 10 to 1000 nM |
| CC1CCCN1c1cc(-n2cnc(Nc3ccccc3)n2)ccn1 (stereo not drawn) [Compound I-56] | < 500 nM | < 500 nM | 10 to 1000 nM |

Further lines, results first:

| Ki (GSK-3β (AA 1-420)) | Ki (CDK-2/Cyclin A) | Ki (JAK-3) | Compound |
| --- | --- | --- | --- |
| < 500 nM | < 500 nM | 10 to 1000 nM | CN(Cc1cccnc1)c1cc(-n2cnc(Nc3ccccc3)n2)ccn1 [Compound I-57] |
| < 500 nM | < 500 nM | 10 to 1000 nM | CCCN(CCO)c1cc(-n2cnc(Nc3ccccc3)n2)ccn1 [Compound I-58] |
| < 500 nM | < 500 nM | 10 to 1000 nM | COCCN(C)c1cc(-n2cnc(Nc3ccccc3)n2)ccn1 [Compound I-59, (2-methoxy-ethyl)-methyl-[4-(3-phenylamino-[1,2,4]triazol-1-yl)-pyridin-2-yl]-amine] |
| > 1000 nM | > 1000 nM | > 1000 nM | CCN(CC)CCNc1cc(-n2cnc(Nc3ccccc3)n2)ccn1 [Compound I-60] |
| > 1000 nM | 500 to 1000 nM | > 1000 nM | CN1C(C)(C)CC(Nc2cc(-n3cnc(Nc4ccccc4)n3)ccn2)CC1(C)C [Compound I-61] |
| < 500 nM | < 500 nM | 10 to 1000 nM | CC(C)CCN(C)c1cc(-n2cnc(Nc3ccccc3)n2)ccn1 [Compound I-62, methyl-(3-methyl-butyl)-[4-(3-phenylamino-[1,2,4]triazol-1-yl)-pyridin-2-yl]-amine] |
| > 1000 nM | > 1000 nM | > 1000 nM | O=c1[nH]c2ccccc2n1C1CCN(c2cc(-n3cnc(Nc4ccccc4)n3)ccn2)CC1 [Compound I-63] |
| > 1000 nM | > 1000 nM | > 1000 nM | O=C(C1CCCO1)N1CCN(c2cc(-n3cnc(Nc4ccccc4)n3)ccn2)CC1 (stereo not drawn) [Compound I-64] |
| 500 to 1000 nM | < 500 nM | 10 to 1000 nM | OC[C@H]1CCCN(c2cc(-n3cnc(Nc4ccccc4)n3)ccn2)C1 [Compound I-65] |
| > 1000 nM | 500 to 1000 nM | 10 to 1000 nM | CC(=O)N1CCCN(c2cc(-n3cnc(Nc4ccccc4)n3)ccn2)CC1 [Compound I-66] |
| > 1000 nM | > 1000 nM | 10 to 1000 nM | CCC(=O)N1CCCN(c2cc(-n3cnc(Nc4ccccc4)n3)ccn2)CC1 [Compound I-67] |
| > 1000 nM | > 1000 nM | 10 to 1000 nM | CCCC(=O)N1CCCN(c2cc(-n3cnc(Nc4ccccc4)n3)ccn2)CC1 [Compound I-68] |
| > 1000 nM | > 1000 nM | > 1000 nM | CC(C)C(=O)N1CCCN(c2cc(-n3cnc(Nc4ccccc4)n3)ccn2)CC1 [Compound I-69] |
| > 1000 nM | > 1000 nM | > 1000 nM | CC(C)CC(=O)N1CCCN(c2cc(-n3cnc(Nc4ccccc4)n3)ccn2)CC1 [Compound I-70] |
| > 1000 nM | > 1000 nM | 10 to 1000 nM | COCC(=O)N1CCCN(c2cc(-n3cnc(Nc4ccccc4)n3)ccn2)CC1 [Compound I-71] |
| > 1000 nM | < 500 nM | 10 to 1000 nM | N#CCC(=O)N1CCCN(c2cc(-n3cnc(Nc4ccccc4)n3)ccn2)CC1 [Compound I-72] |
| 500 to 1000 nM | < 500 nM | < 10 nM | c1ccc(Nc2ncn(-c3ccnc(N4CCCCCC4)c3)n2)cc1 [Compound I-73] |
| > 1000 nM | < 500 nM | < 10 nM | CC(=O)N1[C@H](C)CN(c2cc(-n3cnc(Nc4ccccc4)n3)ccn2)C[C@@H]1C [Compound I-74] |
